Drawing on ChEMBL document CHEMBL4373732, “Phosphatidylinositol 3 kinase (PI3K) inhibitors as new weapon to combat cancer” (Eur J Med Chem, 2019), this text covers IC50 for three molecules.

In assay [1] the target is T1, Phosphatidylinositol 4,5-bisphosphate 3-kinase catalytic subunit delta isoform (Homo sapiens, UniProt O00329).
T1 sequence (O00329 whole entry): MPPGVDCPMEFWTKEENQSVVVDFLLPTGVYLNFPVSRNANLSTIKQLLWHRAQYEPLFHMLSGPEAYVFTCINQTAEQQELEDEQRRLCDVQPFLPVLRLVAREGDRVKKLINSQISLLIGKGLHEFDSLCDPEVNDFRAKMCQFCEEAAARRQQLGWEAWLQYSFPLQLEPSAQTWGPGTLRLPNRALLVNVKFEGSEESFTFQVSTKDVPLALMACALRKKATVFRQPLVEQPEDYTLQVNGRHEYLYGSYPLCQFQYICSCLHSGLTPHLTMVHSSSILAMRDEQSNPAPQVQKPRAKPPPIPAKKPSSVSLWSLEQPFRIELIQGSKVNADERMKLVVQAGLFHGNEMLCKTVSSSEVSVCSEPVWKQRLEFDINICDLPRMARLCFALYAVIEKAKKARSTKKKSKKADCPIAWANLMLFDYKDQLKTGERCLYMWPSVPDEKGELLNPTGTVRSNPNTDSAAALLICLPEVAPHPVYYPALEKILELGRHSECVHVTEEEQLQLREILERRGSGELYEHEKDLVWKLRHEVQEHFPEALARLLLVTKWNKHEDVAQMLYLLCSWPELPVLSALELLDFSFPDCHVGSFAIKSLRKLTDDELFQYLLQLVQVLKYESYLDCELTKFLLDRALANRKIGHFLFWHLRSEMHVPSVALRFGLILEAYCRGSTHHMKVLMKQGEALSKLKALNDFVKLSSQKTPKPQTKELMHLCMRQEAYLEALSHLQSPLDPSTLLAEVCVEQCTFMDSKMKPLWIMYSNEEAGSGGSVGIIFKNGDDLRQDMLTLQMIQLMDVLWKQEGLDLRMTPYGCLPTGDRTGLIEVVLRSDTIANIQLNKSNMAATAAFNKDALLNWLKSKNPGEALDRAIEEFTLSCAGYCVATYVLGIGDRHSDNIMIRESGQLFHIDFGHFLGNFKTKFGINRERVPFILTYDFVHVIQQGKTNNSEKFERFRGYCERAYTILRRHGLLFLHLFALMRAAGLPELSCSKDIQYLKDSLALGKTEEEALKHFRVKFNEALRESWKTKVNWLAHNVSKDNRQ
Briefly: Inhibition of PI3Kdelta (unknown origin).

In assay [2] the target is T2, Phosphatidylinositol 4,5-bisphosphate 3-kinase catalytic subunit beta isoform (Homo sapiens, UniProt P42338).
Assay [3] has as its target T3, Phosphatidylinositol 4,5-bisphosphate 3-kinase catalytic subunit gamma isoform (Homo sapiens, UniProt P48736). The assay is described as follows: Reversible competitive inhibition of PI3K p110gamma (unknown origin).
Assay [4] addresses Phosphatidylinositol 4,5-bisphosphate 3-kinase catalytic subunit alpha isoform (Homo sapiens, UniProt P42336). The assay is described as follows: Inhibition of PI3K p110alpha (unknown origin).
Assay [5] addresses T2, Phosphatidylinositol 4,5-bisphosphate 3-kinase catalytic subunit beta isoform. The assay is described as follows: Inhibition of PI3K p110beta (unknown origin).
For assay [6], the target named is Serine/threonine-protein kinase mTOR (Homo sapiens, UniProt P42345).
The target in assay [7] is T3, Phosphatidylinositol 4,5-bisphosphate 3-kinase catalytic subunit gamma isoform. Briefly: Inhibition of PI3K p110gamma (unknown origin).
The target of assay [8] is T1, Phosphatidylinositol 4,5-bisphosphate 3-kinase catalytic subunit delta isoform. Briefly: Inhibition of PI3K p110delta (unknown origin).

T2 sequence (P42338 whole entry, canonical isoform): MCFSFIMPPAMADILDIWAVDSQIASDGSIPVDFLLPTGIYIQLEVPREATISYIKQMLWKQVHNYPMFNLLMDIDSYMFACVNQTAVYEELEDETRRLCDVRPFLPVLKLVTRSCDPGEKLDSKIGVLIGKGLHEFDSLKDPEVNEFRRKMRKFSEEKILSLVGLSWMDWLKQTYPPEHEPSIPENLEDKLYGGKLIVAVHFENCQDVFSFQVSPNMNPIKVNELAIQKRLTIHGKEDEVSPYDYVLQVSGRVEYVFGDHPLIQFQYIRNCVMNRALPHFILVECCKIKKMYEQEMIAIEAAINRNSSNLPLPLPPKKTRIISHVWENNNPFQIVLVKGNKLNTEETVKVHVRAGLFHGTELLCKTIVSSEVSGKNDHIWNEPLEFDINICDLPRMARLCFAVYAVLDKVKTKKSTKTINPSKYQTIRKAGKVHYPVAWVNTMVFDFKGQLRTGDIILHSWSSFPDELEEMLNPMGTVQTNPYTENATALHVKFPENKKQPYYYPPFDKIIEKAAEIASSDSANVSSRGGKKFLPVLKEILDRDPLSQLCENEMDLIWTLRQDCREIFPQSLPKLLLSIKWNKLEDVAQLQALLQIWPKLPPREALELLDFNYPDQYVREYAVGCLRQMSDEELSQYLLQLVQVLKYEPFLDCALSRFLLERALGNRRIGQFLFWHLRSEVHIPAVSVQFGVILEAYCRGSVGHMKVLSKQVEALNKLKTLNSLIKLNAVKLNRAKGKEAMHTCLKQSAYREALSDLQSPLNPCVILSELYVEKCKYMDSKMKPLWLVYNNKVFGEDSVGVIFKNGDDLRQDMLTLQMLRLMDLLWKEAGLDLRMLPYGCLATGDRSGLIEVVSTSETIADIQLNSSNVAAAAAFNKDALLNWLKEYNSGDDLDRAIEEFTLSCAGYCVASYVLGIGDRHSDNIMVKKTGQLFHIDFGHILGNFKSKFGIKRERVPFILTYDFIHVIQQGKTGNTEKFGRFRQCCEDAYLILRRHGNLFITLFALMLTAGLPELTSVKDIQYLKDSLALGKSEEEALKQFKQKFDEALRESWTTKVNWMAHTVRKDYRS
T3 sequence (P48736 whole entry, canonical isoform): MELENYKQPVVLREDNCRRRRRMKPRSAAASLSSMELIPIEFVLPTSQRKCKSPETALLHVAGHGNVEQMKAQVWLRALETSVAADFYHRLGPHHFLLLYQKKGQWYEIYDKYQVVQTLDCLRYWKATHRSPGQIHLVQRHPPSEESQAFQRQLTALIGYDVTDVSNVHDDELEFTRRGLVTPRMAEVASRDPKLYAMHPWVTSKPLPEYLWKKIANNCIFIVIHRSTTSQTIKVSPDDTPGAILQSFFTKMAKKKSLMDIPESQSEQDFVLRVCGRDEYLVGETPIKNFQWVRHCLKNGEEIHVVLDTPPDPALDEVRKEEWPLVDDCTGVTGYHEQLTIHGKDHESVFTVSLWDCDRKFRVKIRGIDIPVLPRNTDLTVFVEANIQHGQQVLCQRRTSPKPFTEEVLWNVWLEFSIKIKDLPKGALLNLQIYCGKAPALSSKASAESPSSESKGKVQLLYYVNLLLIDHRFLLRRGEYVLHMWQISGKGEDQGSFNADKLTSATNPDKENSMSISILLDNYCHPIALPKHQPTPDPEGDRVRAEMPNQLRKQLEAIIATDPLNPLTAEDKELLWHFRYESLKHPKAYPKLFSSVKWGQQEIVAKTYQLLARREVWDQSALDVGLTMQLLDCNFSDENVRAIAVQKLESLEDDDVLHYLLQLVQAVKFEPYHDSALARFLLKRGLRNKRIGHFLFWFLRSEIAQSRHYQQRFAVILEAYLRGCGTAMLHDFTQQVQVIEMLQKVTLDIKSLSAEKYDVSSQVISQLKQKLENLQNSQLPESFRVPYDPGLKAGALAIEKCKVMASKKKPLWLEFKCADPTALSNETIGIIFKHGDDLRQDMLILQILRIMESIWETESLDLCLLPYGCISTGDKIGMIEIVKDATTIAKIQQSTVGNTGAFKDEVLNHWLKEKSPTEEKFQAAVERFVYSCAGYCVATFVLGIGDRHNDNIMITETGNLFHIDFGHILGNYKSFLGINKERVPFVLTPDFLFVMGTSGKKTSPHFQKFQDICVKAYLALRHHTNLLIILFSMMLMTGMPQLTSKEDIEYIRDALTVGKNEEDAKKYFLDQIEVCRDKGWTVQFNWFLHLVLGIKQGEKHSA
Phosphatidylinositol 4,5-bisphosphate 3-kinase catalytic subunit alpha isoform, sequence (P42336 whole entry, canonical isoform): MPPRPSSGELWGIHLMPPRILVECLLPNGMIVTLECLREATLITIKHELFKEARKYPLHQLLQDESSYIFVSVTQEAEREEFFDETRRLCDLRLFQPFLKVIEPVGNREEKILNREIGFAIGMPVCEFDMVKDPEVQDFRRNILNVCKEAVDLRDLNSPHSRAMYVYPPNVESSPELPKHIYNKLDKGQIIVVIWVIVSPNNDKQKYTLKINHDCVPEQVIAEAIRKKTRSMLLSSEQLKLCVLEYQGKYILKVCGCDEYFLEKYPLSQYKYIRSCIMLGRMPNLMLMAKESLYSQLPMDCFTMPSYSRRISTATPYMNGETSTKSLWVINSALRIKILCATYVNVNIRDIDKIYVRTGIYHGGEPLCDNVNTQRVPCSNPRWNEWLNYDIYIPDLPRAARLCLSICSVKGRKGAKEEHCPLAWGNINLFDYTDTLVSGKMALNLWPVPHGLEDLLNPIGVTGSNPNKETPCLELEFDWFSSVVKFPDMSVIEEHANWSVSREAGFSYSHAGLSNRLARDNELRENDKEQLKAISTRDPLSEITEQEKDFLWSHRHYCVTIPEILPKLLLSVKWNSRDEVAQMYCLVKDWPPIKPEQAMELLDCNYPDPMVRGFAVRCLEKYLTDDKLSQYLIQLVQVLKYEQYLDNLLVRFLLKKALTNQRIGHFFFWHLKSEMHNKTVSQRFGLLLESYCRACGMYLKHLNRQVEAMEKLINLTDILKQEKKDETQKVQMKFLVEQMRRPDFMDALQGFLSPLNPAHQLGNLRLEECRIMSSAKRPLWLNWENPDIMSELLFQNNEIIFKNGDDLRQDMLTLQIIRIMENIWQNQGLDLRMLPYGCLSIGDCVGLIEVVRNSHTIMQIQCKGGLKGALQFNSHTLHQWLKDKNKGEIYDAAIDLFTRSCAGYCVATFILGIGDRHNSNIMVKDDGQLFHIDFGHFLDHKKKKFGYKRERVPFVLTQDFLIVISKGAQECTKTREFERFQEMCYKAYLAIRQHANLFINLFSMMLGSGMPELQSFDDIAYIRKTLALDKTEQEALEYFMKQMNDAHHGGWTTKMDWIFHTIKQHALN

One may read the IC50 as the midpoint of a concentration-inhibition curve. Read a high IC50 as lower potency. For the molecule `C[C@H](Nc1ncnc2[nH]cnc12)c1nc2ccc(F)cc2c(=O)n1-c1ccccc1` [ACALISIB], in assay [1], the half-maximal inhibitory concentration (IC50) was found to be 12.7 nM.
On to `COc1ccc(Cl)c(Nc2nc3ccccc3nc2NS(=O)(=O)c2cccc(NC(=O)C(C)(C)N)c2)c1` [PILARALISIB], for which the IC50 was 36 nM in assay [2] and 383 nM in assay [3].
For the molecule `CCn1c(=O)c(-c2cc[nH]n2)cc2c(C)nc(N)nc21` [VOXTALISIB], the IC50 was determined as 39 nM in assay [4]; 113 nM in assay [5]; 157 nM in assay [6]; 9 nM in assay [7]; 43 nM in assay [8].
